Experimental data reported in PubChem BioAssay AID256 (DTP/NCI, 2004).
Values joined by “and” are separate entries in the source; they are usually repeats but may differ in a detail not shown here. Identical values can stand only once. Inconclusive results and toxic doses are left out. The calls were made as follows: active = survival T/C of 150% or more; inactive = T/C below 125% in these data.

Tested on: CD2F1 mice, L1210 leukemia ip, survival T/C
Test: NCI In Vivo Anticancer Drug Screen. Data for tumor model L1210 Leukemia (intraperitoneal) in CD2F1 (CDF1) mice
Settings: higher = longer survival
Outline: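 Antitumor effect is scored in animals hosting a serially transplanted tumor. Values compare compound-dosed animals against vehicle-only controls as a simple quotient.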

[1] = endpoint: mean survival time, dose: 100.0 mg/kg/injection, schedule: Q01DX001 (ip), vehicle: saline with Tween-80
[2] = endpoint: mean survival time, dose: 200.0 mg/kg/injection, schedule: Q01DX001 (ip), vehicle: saline with Tween-80
[3] = endpoint: mean survival time, dose: 400.0 mg/kg/injection, schedule: Q01DX001 (ip), vehicle: saline with Tween-80
[4] = endpoint: mean survival time, dose: 100.0 mg/kg/injection, schedule: Q04DX003 (ip), vehicle: other
[5] = endpoint: mean survival time, dose: 200.0 mg/kg/injection, schedule: Q04DX003 (ip), vehicle: other
[6] = endpoint: mean survival time, dose: 400.0 mg/kg/injection, schedule: Q04DX003 (ip), vehicle: other
[7] = endpoint: mean survival time, dose: 50.0 mg/kg/injection, schedule: Q01DX009 (ip), vehicle: saline with Tween-80
[8] = endpoint: mean survival time, dose: 100.0 mg/kg/injection, schedule: Q01DX009 (ip), vehicle: saline with Tween-80
[9] = endpoint: mean survival time, dose: 200.0 mg/kg/injection, schedule: Q01DX009 (ip), vehicle: saline with Tween-80
[10] = endpoint: mean survival time, dose: 400.0 mg/kg/injection, schedule: Q01DX009 (ip), vehicle: saline with Tween-80
[11] = endpoint: mean survival time, dose: 50.0 mg/kg/injection, schedule: Q04DX002 (ip), vehicle: saline with Tween-80
[12] = endpoint: mean survival time, dose: 100.0 mg/kg/injection, schedule: Q04DX002 (ip), vehicle: saline with Tween-80
[13] = endpoint: mean survival time, dose: 100.0 mg/kg/injection, schedule: Q04DX003 (ip), vehicle: saline
[14] = endpoint: mean survival time, dose: 200.0 mg/kg/injection, schedule: Q04DX003 (ip), vehicle: saline
[15] = endpoint: mean survival time, dose: 100.0 mg/kg/injection, schedule: Q04DX003 (ip), vehicle: saline with Tween-80
[16] = endpoint: mean survival time, dose: 400.0 mg/kg/injection, schedule: Q04DX003 (ip), vehicle: saline with Tween-80
[17] = endpoint: mean survival time, dose: 200.0 mg/kg/injection, schedule: Q04DX002 (ip), vehicle: saline with Tween-80
[18] = endpoint: mean survival time, dose: 25.0 mg/kg/injection, schedule: Q01DX009 (ip), vehicle: saline with Tween-80
[19] = endpoint: mean survival time, dose: 200.0 mg/kg/injection, schedule: Q04DX003 (ip), vehicle: saline with Tween-80

Measured: T/C

CCOC(=O)COc1c(C(C)(C)C)cc([N+](=O)[O-])c(C)c1[N+](=O)[O-]
inactive: [1] 105 % of control | [2] 111 % of control | [3] 96 % of control

CC(C)C/C(=N\Nc1ccccc1)c1ccccn1
inactive: endpoint: mean survival time, dose: 100.0 mg/kg/injection, schedule: Q01DX001 (ip), vehicle: saline 101 % of control | endpoint: mean survival time, dose: 200.0 mg/kg/injection, schedule: Q01DX001 (ip), vehicle: saline 100 % of control | endpoint: mean survival time, dose: 400.0 mg/kg/injection, schedule: Q01DX001 (ip), vehicle: saline 97 % of control

[I][Pt+2][I].[NH-]N1CCN([NH-])CC1
inactive: endpoint: mean survival time, dose: 3.13 mg/kg/injection, schedule: Q04DX003 (ip), vehicle: distilled water + Tween-80 102 % of control | endpoint: mean survival time, dose: 6.25 mg/kg/injection, schedule: Q04DX003 (ip), vehicle: distilled water + Tween-80 100 % of control | endpoint: mean survival time, dose: 12.5 mg/kg/injection, schedule: Q04DX003 (ip), vehicle: distilled water + Tween-80 102 % of control | endpoint: mean survival time, dose: 25.0 mg/kg/injection, schedule: Q04DX003 (ip), vehicle: distilled water + Tween-80 102 % of control | endpoint: mean survival time, dose: 50.0 mg/kg/injection, schedule: Q04DX003 (ip), vehicle: distilled water + Tween-80 104 % of control | endpoint: mean survival time, dose: 100.0 mg/kg/injection, schedule: Q04DX003 (ip), vehicle: distilled water + Tween-80 102 % of control | endpoint: mean survival time, dose: 200.0 mg/kg/injection, schedule: Q04DX003 (ip), vehicle: distilled water + Tween-80 100 % of control

CC1=CC(O)(C2(O)C=C(C)CC(C)(C)C2)CC(C)(C)C1 (centres undefined)
inactive: endpoint: mean survival time, dose: 100.0 mg/kg/injection, schedule: Q01DX009 (ip), vehicle: other 102 % of control | [4] 102 % of control | endpoint: mean survival time, dose: 200.0 mg/kg/injection, schedule: Q01DX009 (ip), vehicle: other 90 % of control | [5] 96 % of control | endpoint: mean survival time, dose: 400.0 mg/kg/injection, schedule: Q01DX009 (ip), vehicle: other 88 % of control | [6] 94 % of control

COc1cc(OC)c(NC(=O)Oc2cc(C)c(Cl)c(C)c2Cl)cc1Cl
inactive: [7] 94 % of control | [8] 94 % of control | [9] 97 % of control

Cc1cccc(Cl)c1NC(=O)Nc1ccc(C(=O)O)c(O)c1
inactive: [8] 97 % of control | [9] 103 % of control | [10] 114 % of control

O=C1/C(=C/c2ccccc2)C=C(c2ccccc2)N1Cc1ccccc1
inactive: endpoint: mean survival time, dose: 25.0 mg/kg/injection, schedule: Q04DX002 (ip), vehicle: saline with Tween-80 103 % of control | [11] 100 % of control | [12] 100 % of control

CCCCCNCCOC(=O)c1ccc(N)cc1
inactive: endpoint: mean survival time, dose: 5.0 mg/kg/injection, schedule: Q01DX001 (ip), vehicle: saline 100 % of control | endpoint: mean survival time, dose: 10.0 mg/kg/injection, schedule: Q01DX001 (ip), vehicle: saline 100 % of control | endpoint: mean survival time, dose: 20.0 mg/kg/injection, schedule: Q01DX001 (ip), vehicle: saline 94 % of control | endpoint: mean survival time, dose: 40.0 mg/kg/injection, schedule: Q01DX001 (ip), vehicle: saline 104 % of control

Cc1cccc[n+]1CCCS(=O)(=O)[O-]
inactive: [13] 104 % of control | [14] 102 % of control | endpoint: mean survival time, dose: 400.0 mg/kg/injection, schedule: Q04DX003 (ip), vehicle: saline 101 % of control

CC1=C(CNc2ncnc3nc[nH]c23)CC=CC1
inactive: [8] 88 % of control | [15] 95 % of control | [9] 92 % of control | [10] 88 % of control | [16] 98 % of control

CCCCCc1ccc(C(C)=O)cc1
inactive: [8] 103 % of control | [9] 103 % of control | [10] 88 % of control

O=C(CCCN1CCC(O)(c2ccc(Cl)cc2)CC1)c1ccc(N2CCC(O)CC2)cc1
inactive: [12] 104 % of control | [17] 93 % of control | endpoint: mean survival time, dose: 400.0 mg/kg/injection, schedule: Q04DX002 (ip), vehicle: saline with Tween-80 93 % of control

O=C1NC(=O)/C(=C/c2ccccc2)N1
inactive: endpoint: mean survival time, dose: 75.0 mg/kg/injection, schedule: Q04DX003 (ip), vehicle: saline sonified 100 % of control | endpoint: mean survival time, dose: 150.0 mg/kg/injection, schedule: Q04DX003 (ip), vehicle: saline sonified 105 % of control | endpoint: mean survival time, dose: 300.0 mg/kg/injection, schedule: Q04DX003 (ip), vehicle: saline sonified 105 % of control

O=C(O)C1C2CC3OC(=O)C1C3C2O (centres undefined)
inactive: [8] 91 % of control | [9] 93 % of control | [10] 96 % of control

C=COCCCCCCCCCCCCCCCCCC
inactive: [4] 108 % of control | [5] 108 % of control | [6] 98 % of control

O=Cc1ccc(O)c(Cl)c1
inactive: [1] 96 % of control | [2] 104 % of control | [3] 93 % of control

CC(=O)Nc1ccc(OCCOC(=O)Nc2ccc(Cl)cc2C)cc1
inactive: endpoint: mean survival time, dose: 12.5 mg/kg/injection, schedule: Q01DX009 (ip), vehicle: saline with Tween-80 98 % of control | [18] 95 % of control | [7] 95 % of control and 96 % of control | [9] 92 % of control

COC(=O)Nc1cc2c3c(c1)CCCN3CCC2
inactive: [15] 104 % of control | [19] 93 % of control

CC(C)(CCC(=O)O)C(=O)c1ccccc1
inactive: [11] 98 % of control | [12] 94 % of control | [17] 94 % of control

O=[N+]([O-])O.S=C([SH2+])[n+]1ccccc1.S=C([SH2+])[n+]1ccccc1.[NH-]C1CCCCC1[NH-].[Pt+4]
inactive: endpoint: median survival time, dose: 3.12 mg/kg/injection, schedule: Q04DX003 (ip), vehicle: saline 101 % of control | endpoint: median survival time, dose: 6.25 mg/kg/injection, schedule: Q04DX003 (ip), vehicle: saline 109 % of control | endpoint: median survival time, dose: 12.5 mg/kg/injection, schedule: Q04DX003 (ip), vehicle: saline 100 % of control | endpoint: median survival time, dose: 25.0 mg/kg/injection, schedule: Q04DX003 (ip), vehicle: saline 90 % of control | endpoint: median survival time, dose: 50.0 mg/kg/injection, schedule: Q04DX003 (ip), vehicle: saline 95 % of control | endpoint: median survival time, dose: 100.0 mg/kg/injection, schedule: Q04DX003 (ip), vehicle: saline 106 % of control | endpoint: median survival time, dose: 200.0 mg/kg/injection, schedule: Q04DX003 (ip), vehicle: saline 109 % of control

NC(CSS(=O)(=O)O)=NCCSS(=O)(=O)O
inactive: [13] 97 % of control | [14] 97 % of control

S=C(NCCc1ccccc1)Nc1ccccc1
inactive: [15] 97 % of control | [19] 95 % of control | [16] 95 % of control

CCN(CC)CCOCCO
inactive: endpoint: mean survival time, dose: 100.0 mg/kg/injection, schedule: Q01DX009 (ip), vehicle: saline 102 % of control | endpoint: mean survival time, dose: 200.0 mg/kg/injection, schedule: Q01DX009 (ip), vehicle: saline 96 % of control

CC1CP(c2ccccc2)(c2ccccc2)(c2ccccc2)OC1(C(=O)c1ccccc1)c1ccccc1 (centres undefined)
inactive: [18] 89 % of control | [15] 91 % of control

Nc1nc(F)nc2c1ncn2C1OC(CO)C(O)C1O (centres undefined)
active: endpoint: mean survival time, dose: 111.0 mg/kg/injection, schedule: Q01DX009 (ip), vehicle: saline with Tween-80 187 % of control | endpoint: mean survival time, dose: 133.0 mg/kg/injection, schedule: Q01DX005 (ip), vehicle: saline with Tween-80 154 % of control | endpoint: mean survival time, dose: 133.0 mg/kg/injection, schedule: Q01DX009 (ip), vehicle: saline with Tween-80 227 % of control and 276 % of control | endpoint: mean survival time, dose: 156.0 mg/kg/injection, schedule: Q01DX009 (ip), vehicle: saline with Tween-80 393 % of control | endpoint: mean survival time, dose: 178.0 mg/kg/injection, schedule: Q01DX005 (ip), vehicle: saline with Tween-80 179 % of control | endpoint: mean survival time, dose: 178.0 mg/kg/injection, schedule: Q01DX009 (ip), vehicle: saline with Tween-80 473 % of control | [9] 563 % of control | endpoint: mean survival time, dose: 222.0 mg/kg/injection, schedule: Q01DX009 (ip), vehicle: saline with Tween-80 333 % of control
inactive: endpoint: mean survival time, dose: 100.0 mg/kg/injection, schedule: Q01DX001 (ip), vehicle: other 105 % of control | endpoint: mean survival time, dose: 200.0 mg/kg/injection, schedule: Q01DX001 (ip), vehicle: other 109 % of control | endpoint: mean survival time, dose: 400.0 mg/kg/injection, schedule: Q01DX001 (ip), vehicle: other 105 % of control
